# Data reported in paper PMC10508264, “Exploring the antioxidant, antimicrobial, cytotoxic and biothermodynamic properties of novel morpholine derivative bioactive Mn(II), Co(II) and Ni(II) complexes – combined experimental and theoretical measurements towards DNA/BSA/SARS-CoV-2 3CL^Pro” (RSC Medicinal Chemistry, 2023).
# pIC50: −log10 of the molar value. Several values for one entry are separate records, joined by “and”; a condition that tells them apart may be missing. Equal values may be shown once.
# What was measured:
# Shigella flexneri = assay: Agar disc diffusion, strain E; assay type: cell-based; design: Inhibition%: concentration or dose not given beside the values; conditions: for Diameter of clear zone inhibition: control 6 mm
# [1] = DPPH radical scavenging assay; assay type: biochemical; conditions: for % Inhibition, DPPH: 517 nm
# CT-DNA [2] = assay: DNA thermal denaturation / biothermodynamic properties; assay type: binding; conditions: for Tm of DNA–substance adduct: 1:1 ratio (50 μM), free CT-DNA 68 °C; for Binding constant Kr @ 298 K: 25 °C (298 K); for ΔTm: adduct vs CT-DNA alone
# CT-DNA [3] = assay: DNA binding by cyclic voltammetry; conditions: for Kb, method I, Oxi: oxidation; for Kb, method I, red: reduction
# Method: The changes in peak current as well as peak potential were monitored while concentrations of CT-DNA were increased (0–10 μM) in each sample solution.[13,36]
# The CV approach is one of the most important methods for evaluating the binding mechanism of a DNA–complex adduct. The CV properties of all test samples in the presence and absence of DNA were executed at a scan rate (v) of 0.1 V s^−1 with a potential range of +2 to −2 in a Tris–HCl (5 mM)/NaCl (50 mM) (pH = 7.2) solution. The M^1+/M^2+ redox couple is caused by complexes that reveal a single anodic and cathodic peak. […] (Fig. S31 ^† and Table 6).
# ΔEP is peak-to-peak separation = (EPa − EPc); E° (or E1/2) denotes the formal electrode potential = 1/2(EPa + EPc); [drawing 41] [drawing 42] and [drawing 43] represent the formal electrode potential of the M^1+/M^2+ couple in the bound and free forms, respectively. [drawing 44] = +19 mV (HL), +18 mV (1), +16 mV (2), +16 mV (3). Ipa is anodic peak current, Ipc is cathodic peak current. K^1+ is the binding constant of the reduction process, K^2+ is the binding constant of the oxidation process. S represents the binding site size of base pairs (bp) with a molecule of complex, scan rate is 100 mV s^−1, binding constant (Kb) values observed from the linear plots of log(1/[DNA]) versus log(I/I0 − I) for oxidation and reduction, (I0 − IDNA)/IDNA = Cp/Cfversus [DNA] and I^2p versus(I^2po − I^2p)/[DNA] by methods I, II and III, respectively.
# While the substances often bind to DNA through intercalation, the peak potential shifts in a positive direction. When the compounds bind to DNA through minor or major grooves or electrostatic attractions, the peak potential shifts occur in a negative direction. It was observed that the consistent movement of peak potential shifts in the positive direction during increments of DNA with test substances. The binding mode in compound–DNA adducts has been described as primarily intercalation (Fig. S31 ^†), and it is also attributed to the presence of 2,2′-bipyridine and morpholine fused aromatic planar systems in mixed ligand complexes, which can create inclusion through intercalation due to hydrophobic and π–π stacking interactions in the DNA base pairs. It is also supported by the evaluated outcomes from UV-vis spectral, emission titration, viscometric, and biothermodynamic properties. Furthermore, the observed values of Kb, S, and the ratio of binding constants (K^1+/K^2+) for M^1+/M^2+ couple systems further confirmed the binding affinity via intercalation. Also, the subsequent eqn (24)–(35) are applied to determine the above parameters.[88,89]Eqn (24) is acquired from modification of the Stern–Volmer eqn (14) (Table 6). The Kb values for all samples were estimated from the linear regression plot of log(1/[DNA]) versus log(I/I0 − I) by method I (Fig. S32 ^† and Table 6). Eqn (26) was obtained from revision of eqn (25). Also, binding site size (S, bp) and Kb are estimated from eqn (30) from the linear regression plot of (Cp/Cf) versus [DNA] by method-II[90–92] (Fig. S33 ^† and Table 6). In addition, base-pair sites with a molecule of the compound are referred to as “binding site size” (S), and the evaluated S values were found in the range from 0.1718 to 0.4599 bp. […] In the Nernst eqn (31) and (32) for the galvanic cell, [drawing 58] , the formal electrode potentials of the M^1+/M^2+ couple in their bound and free forms are E1/2 or [drawing 59] and [drawing 60] , respectively. As a result of the variable binding state [M^1+/M^2+] and the delayed mass transfer of test compounds that interacted with DNA fragments, the addition of DNA to the compound solution enabled a change in the redox potential to a higher positive direction and a drop in both anodic and cathodic peak currents. In particular, the equilibrium of M^1+/M^2+ is influenced by electrostatic or hydrophobic interactions.
# Aspergillus niger = assay: Agar disc diffusion, strain H; assay type: cell-based; design: Inhibition%: concentration or dose not given beside the values; conditions: for Diameter of clear zone inhibition: control 6 mm
# Mucor indicus = assay: Agar disc diffusion, strain J; assay type: cell-based; design: Inhibition%: concentration or dose not given beside the values; conditions: for Diameter of clear zone inhibition: control 6 mm
Compound,Inhibition% (Shigella flexneri),Diameter of clear zone inhibition (Shigella flexneri),"% Inhibition, DPPH ([1]; 40 µM)","% Inhibition, DPPH ([1]; 80 µM)","% Inhibition, DPPH ([1]; 120 µM)","% Inhibition, DPPH ([1]; 160 µM)","% Inhibition, DPPH ([1]; 200 µM)","% Inhibition, DPPH ([1]; 240 µM)",Tm of DNA–substance adduct (CT-DNA [2]),Binding constant (CT-DNA [2]; 10 °C (283 K)),Binding constant Kr @ 298 K (CT-DNA [2]),Binding constant (CT-DNA [2]; 40 °C (313 K)),ΔTm (CT-DNA [2]),"Kb, method II (CT-DNA [3])","Kb, method III (CT-DNA [3])","Kb, method I, Oxi (CT-DNA [3])","Kb, method I, red (CT-DNA [3])",Inhibition% (Aspergillus niger),Diameter of clear zone inhibition (Aspergillus niger),Inhibition% (Mucor indicus),further results
[Mn+2].[O-]c1ccccc1N=Cc1ccc(N2CCOCC2)cc1.[O-]c1ccccc1N=Cc1ccc(N2CCOCC2)cc1.c1ccc(-c2ccccn2)nc1 [(1)],40%,10 mm,11.16%,18.62%,30.41%,37.32%,42.47%,62.23% and 58.05%,76 °C,72350 M⁻¹,18195 M⁻¹,7732.1 M⁻¹,8 °C,14873 M⁻¹,10713 M⁻¹,10020 M⁻¹,7890 M⁻¹,50%,12 mm,45%,Diameter of clear zone inhibition (Mucor indicus): 11 mm
[Co+2].[O-]c1ccccc1N=Cc1ccc(N2CCOCC2)cc1.[O-]c1ccccc1N=Cc1ccc(N2CCOCC2)cc1.c1ccc(-c2ccccn2)nc1 [(2)],33%,09 mm,14.20%,26.76%,31.64%,45.67%,52.54%,62.23%,78 °C,98820 M⁻¹,18806 M⁻¹,8043.3 M⁻¹,10 °C,41119 M⁻¹,15999 M⁻¹,14210 M⁻¹,11330 M⁻¹,50%,12 mm,45%,pIC50 [1]: 3.70; Diameter of clear zone inhibition (Mucor indicus): 11 mm
[Ni+2].[O-]c1ccccc1N=Cc1ccc(N2CCOCC2)cc1.[O-]c1ccccc1N=Cc1ccc(N2CCOCC2)cc1.c1ccc(-c2ccccn2)nc1 [(3)],54%,13 mm,13.08%,24.74%,30.86%,41.06%,49.83%,60.02%,77 °C,91140 M⁻¹,18207 M⁻¹,7879.7 M⁻¹,9 °C,6072 M⁻¹,16031 M⁻¹,11440 M⁻¹,9156 M⁻¹,50%,12 mm,54%,Diameter of clear zone inhibition (Mucor indicus): 13 mm
"Oc1ccccc1N=Cc1ccc(N2CCOCC2)cc1 [(HL), 2-(4-morpholinobenzylideneamino)phenol]",57%,14 mm,09.45%,15.21%,26.36%,34.56%,39.41%,52.45%,74 °C,52575 M⁻¹,15169 M⁻¹,6067.4 M⁻¹,6 °C,2443 M⁻¹,4837 M⁻¹,5280 M⁻¹,3809 M⁻¹,40%,10 mm,45%,Diameter of clear zone inhibition (Mucor indicus): 11 mm
